Assay results: paper PMC5597121, “The human bitter taste receptor T2R38 is broadly tuned for bacterial compounds” (PLoS ONE, 2017)
Substitutions are numbered along the chain they refer to. pEC50: −log10 of the molar value. “And” between values parts separate entries of the source, which are not always exact repeats. Equal entries are not always repeated.

Experiments:
T2R38 AVI = molecular target: T1, T2R38 AVI (Homo sapiens, UniProt P59533, A262V); assay: Single cell calcium imaging, control: cells transfected with nonfunctional allele (AVI) of T2R38; type: cell-based; conditions: T2R38 AVI, individual values of experiments 1-5
T1 construct: leader: first 45 amino acids of rat somatostatin receptor subtype 3 (SSTR3) (N); expressed in transfected cells; host or cells: Peakrapid cells (HEK293 derivative, ATCC CRL-2828) stably expressing Galpha16gustducin44, co-transfected with human RTP4
T1 sequence (P59533 1-333 A262V): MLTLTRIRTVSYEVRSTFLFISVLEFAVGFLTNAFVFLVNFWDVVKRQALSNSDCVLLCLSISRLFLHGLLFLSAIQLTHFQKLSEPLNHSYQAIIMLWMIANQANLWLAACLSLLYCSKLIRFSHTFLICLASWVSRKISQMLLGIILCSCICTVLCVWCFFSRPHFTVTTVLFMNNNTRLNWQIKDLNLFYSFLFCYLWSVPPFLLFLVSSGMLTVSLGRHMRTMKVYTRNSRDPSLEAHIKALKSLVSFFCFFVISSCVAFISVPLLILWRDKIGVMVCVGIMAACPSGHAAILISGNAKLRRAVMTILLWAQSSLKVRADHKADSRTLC
Description: (§1) The coding sequences of either the functional (PAV, GenBank accession number AY258597.1) and non-functional (AVI, GenBank accession number AF494231.1) were amplified from human genomic DNA by polymerase chain reaction.
(§2) The Peakrapid cell line expressing stably a chimeric Gα16gustducin44 G protein [21] was used. 40 000 cells were seeded in each well of a black/clear poly-D-lysine cellware pre-coated 96-well plate (Biocoat®, Becton-Dickinson, Erembodegem, Belgium) and transiently transfected with 50 ng of plasmid DNA containing the receptor sequence or not (empty vector) and with 50 ng of chaperone protein RTP4 per well. Forty hours after transfection, cells were incubated with the calcium-sensitive dye Fluo4 (Life Technologies, Oregon, USA) solubilized at 10 μg/ml in a buffer containing EMEM (150 mM NaCl, 5 mM KCl, 2 mM CaCl2, 1.2 mM MgCl2, 10 mM glucose), 10 mM HEPES, 0.01% (v/v) Pluronic F127, 0.1% (w/v) bovine serum albumin. After 1 h incubation at 37°C, cells were rinsed twice with the same buffer without Fluo4 and left in 50 μl buffer (prior ligand injection). Measurement were performed on a platform based on a motorized Axiobserver Z1 fluorescence microscope piloted by a Axiovision software (Zeiss, Jena, Germany) as described previously. For each selected well, images were taken 1 per second, during 30 seconds. 50 μl of the buffer containing the ligand twice concentrated was injected on the 2nd second of the time lapse record.
(§3) After time lapse record, the number of responding cells in each injected well was determined using ImageJ 1.34 (Rasband, W.S., ImageJ, National Institutes of Health, Bethesda, Maryland, USA, http://rsb.info.nih.gov/ij/1997-2004), and expressed as the percentage of the surface of a microscope field covered by activated cells with respect to the total surface of the field covered by confluent cells. Automated determination of the surface occupied by responding cells is easier to perform than a cell counting. The resulting percentage of positive surface provided a convenient estimation of the percentage of responding cells, as observed by comparing the percentage of positive surface and percentage of responsive cells determined by direct counting, in the same experiment. In agreement with the literature, the percentage of responding cells was proportional to the agonist concentration. During experiment in each plate, at least 2 wells were tested with phenylthiocarbamide (PTC) at 0.1 mM, which is one of the best characterized agonist of T2R38 in the literature. The activation of T2R38 by PTC allows normalization of the result of other tested molecules. The results were thus expressed as the percentage of PTC activation. In scaling calcium imaging assays using this latter receptor, concentration-responses curves were performed and data were fitted to a four parameter logistic equation: y=min+ (max− min)/1+10 ^(logEC50−x)nH . Min and max are the minimum and the maximum values of the percentage of cell-activated surface respectively, y is the percentage of cell-activated surface at the x concentration and nH is the Hill coefficient.

T2R38 = molecular target: T2, T2R38 (Homo sapiens, UniProt P59533, A49P/I296V); assay: Single cell calcium imaging, Peakrapid cells (Gα16gustducin44) transiently transfected with T2R38; type: cell-based; conditions: for response of T2R38 PAV transfected cells (S7_fig raw data): individual values of experiments 1-5; for pEC50: concentration-response curve, read-out: EC50; for logEC50: given in the concentration-response curve; for Emax (% of positive control): percentage of the response elicited by 0.1 mM PTC
T2 construct: leader: first 45 amino acids of rat somatostatin receptor subtype 3 (SSTR3) (N); expressed in transfected cells; host or cells: Peakrapid cells (HEK293 derivative, ATCC CRL-2828) stably expressing Galpha16gustducin44, co-transfected with human RTP4
T2 sequence (P59533 1-333 A49P/I296V): T1 sequence (P59533 1-333 A262V) with A49P, V262A, I296V
Text: as §1
These coding sequences were cloned in a pEFIB backbone vector in translational fusion with the coding sequence of a leader sequence corresponding to the 45 first amino acids of the rat somatostatin receptor subtype 3 [20]. The constructs were verified by sequencing. The coding sequence of RTP4 (Genbank accession number AY562238.1) was amplified from human spleen cDNA and cloned a pCI backbone vector.
The Gα16gustducin44 sequence was generated by swapping the last 132 nucleotides of the G α16 with the corresponding terminal sequence of the Gα-gustducin [21] and was cloned in a pIRES-Puro plasmid. This vector was transfected in the Peakrapid cell line (ATCC reference: CRL-2828™; purchased from LGC Standards SARL, Molsheim, FRANCE), HEK293 cell line derivative, cultured in EMEM culture medium (reference BE12-136F; Lonza, Vervier, BELGIUM) supplemented with 10% of foetal bovine serum (Sigma-Aldrich, Bornem, Belgium) and 1 μg/ml of Puromycin to allow the selection of recombinant cell populations. Cell clones expressing the Gα16gustducin44 were selected and the clone presenting the best functional response of T2R38 to phenylthicarbamide was used for the study (see below).
as §2
as §3, with “In scaling calcium imaging assays using this latter receptor, concentration-responses curves were performed and data were fitted to a four parameter logistic equation: y=min+ (max− min)/1+10 ^(logEC50−x)nH . Min and max are the minimum and the maximum values of the percentage of cell-activated surface respectively, y is the percentage of cell-activated surface at the x concentration and nH is the Hill coefficient.” left out

[1] = system: mock transfected cells (empty vector); assay: Single cell calcium imaging, control: mock transfected (empty vector) Peakrapid cells; type: cell-based, human
Description: as §2, §3

[2] = 2 butanone 0.0003, log10[ ] -3.52288
[3] = 2 butanone 0.005, log10[ ] -2.30
[4] = 2 méthyl propanal 0.000398107, log10[ ] -3.4
[5] = 2 méthyl propanal 0.00251189, log10[ ] -2.6
[6] = 2 méthyl propanal 0.0158489, log10[ ] -1.8

## CCC(C)=O [2-butanone]
T2R38 AVI
  response of T2R38 AVI transfected cells (S7_fig raw data): 0.268% and 0.426% and 0.699% and 0.605% and 0.163% and 0.0184% and 0.394% and 1%
T2R38
  agonist activity on T2R38 (in words): able to specifically trigger this receptor
  response of T2R38 PAV transfected cells (S7_fig raw data): 17% and 13% and 2.7% and 11% and 15% and 12% and 7% and 6%
  pEC50: 1.96
  logEC50: -1.94
  Emax (% of positive control): 48 % of positive control
T2R38; [2]
  percentage of surface covered by activated cells: 0.29% and 0.34% and 0.44% and 0.21% and 0.00% and 0.15%
T2R38; 2 butanone 0.001, log10[ ] -3
  percentage of surface covered by activated cells: 0.13% and 1.98% and 3.16% and 3.22% and 0.15% and 0.22%
T2R38; [3]
  percentage of surface covered by activated cells: 0.54% and 0.83% and 7.88% and 6.11% and 2.08% and 3.12%
[1]; [2]
  percentage of surface covered by activated cells: 0.39% and 0.10% and 0.28% and 0.31% and 0.23% and 0.40%
[1]; 2 butanone 0.001, log10[ ] -3
  percentage of surface covered by activated cells: 0.15% and 0.21% and 0.35% and 0.12% and 1.02% and 0.24%
[1]; [3]
  percentage of surface covered by activated cells: 0.20% and 0.26% and 0.34% and 0.21% and 0.24% and 0.71%
[1]; 2 butanone 0.015, log10[ ] -1.82
  percentage of surface covered by activated cells: 0.00% and 0.0352% and 0.31% and 0.18% and 0.33% and 0.26%
[1]; 2 butanone 0.03, log10[ ] -1.52
  percentage of surface covered by activated cells: 0.0659% and 0.02% and 0.27% and 0.40% and 0.08% and 0.25%
[1]; 2 butanone 0.08, log10[ ] -1.09691
  percentage of surface covered by activated cells: 0.25% and 0.75% and 3.48% and 1.23% and 0.22% and 1.04%

## CC(C)C=O [2-methylpropanal]
T2R38 AVI; listed as 2 méthyl propanal
  response of T2R38 AVI transfected cells (S7_fig raw data): 1% (2×) and 2% and 1.41% and 0.831% and 1.15%
T2R38
  agonist activity on T2R38 (in words): able to specifically trigger this receptor
  pEC50: 1.96
  logEC50: -1.97
  Emax (% of positive control): 163 % of positive control
T2R38; [4]
  percentage of surface covered by activated cells: 0.29% and 0.95% and 0.86% and 0.39% and 1.39% and 0.60% and 1.13% and 1.16%
T2R38; [5]
  percentage of surface covered by activated cells: 1.62% and 0.54% and 2.22% and 1.87% and 1.50% and 1.18% and 5.46% and 4.93%
T2R38; [6]
  percentage of surface covered by activated cells: 36.19% and 28.82% and 26.57% and 24.12% and 23.76% and 32.56% and 40.19% and 33.93%
T2R38; listed as 2 méthyl propanal
  response of T2R38 PAV transfected cells (S7_fig raw data): 27% and 16% and 28% and 14% (2×) and 8.51%
[1]; [4]
  percentage of surface covered by activated cells: 0.75% and 0.87% and 0.24% and 0.23% and 0.25% and 0.37% and 0.61%
[1]; [5]
  percentage of surface covered by activated cells: 0.28% and 0.65% and 0.25% and 0.23% and 1.49% and 1.18% and 0.31% and 0.37%
[1]; 2 méthyl propanal 0.00398107, log10[ ] -2.4
  percentage of surface covered by activated cells: 0.33% and 0.26% and 0.12% and 0.41% and 0.13% and 0.42% and 0.48% and 0.87%
[1]; 2 méthyl propanal 0.00630957, log10[ ] -2.2
  percentage of surface covered by activated cells: 0.35% and 0.63% and 0.24% and 0.06% and 0.59% and 0.25% and 0.34% and 0.85%
[1]; 2 méthyl propanal 0.01, log10[ ] -2
  percentage of surface covered by activated cells: 0.73% and 0.27% and 0.89% and 1.38% and 0.42% and 1.05% and 1.19% and 0.79%
[1]; [6]
  percentage of surface covered by activated cells: 1.86% and 0.33% and 2.42% and 3.28% and 1.11% and 1.32% and 3.65% and 5.14%

## CC(C)=O [acetone]
T2R38 AVI
  response of T2R38 AVI transfected cells (S7_fig raw data): 0.559% and 1.33% and 0.331% and 0.695% and 0.444% and 0.829%
T2R38
  agonist activity on T2R38 (in words): able to specifically trigger this receptor
  response of T2R38 PAV transfected cells (S7_fig raw data): 16% and 18% and 21% and 22% and 7% and 15%
  pEC50: 1.22
  logEC50: -1.22
  Emax (% of positive control): 67 % of positive control
T2R38; acetone 0.0035, log10[ ] -2.45
  percentage of surface covered by activated cells: 0.29% and 0.16% and 0.35%
T2R38; acetone 0.011, log10[ ] -1.95
  percentage of surface covered by activated cells: 1.02% and 0.77% and 0.78% and 0.46% and 1.17% and 0.98%
T2R38; acetone 0.035, log10[ ] -1.45
  percentage of surface covered by activated cells: 0.69% and 0.81% and 7.95% and 5.59% and 2.13% and 2.80%
T2R38; acetone 0.066, log10[ ] -1.18
  percentage of surface covered by activated cells: 2.66% and 2.94% and 6.89% and 9.70%
[1]; acetone 0.0035, log10[ ] -2.45
  percentage of surface covered by activated cells: 1.26% and 0.40% and 0.58%
[1]; acetone 0.011, log10[ ] -1.95
  percentage of surface covered by activated cells: 0.32% and 0.08% and 0.49% and 0.06%
[1]; acetone 0.035, log10[ ] -1.45
  percentage of surface covered by activated cells: 0.26% and 0.42% and 1.02% and 0.10%
[1]; acetone 0.066, log10[ ] -1.18
  percentage of surface covered by activated cells: 1.43% and 0.30% and 0.70%
[1]; acetone 0.114, log10[ ] -0.94
  percentage of surface covered by activated cells: 0.76% and 0.05% and 0.38% and 0.11%
[1]; acetone 0.162, log10[ ] -0.79
  percentage of surface covered by activated cells: 1.04% and 0.22% and 0.73% and 0.01%
[1]; acetone 0.185, log10[ ] -0.73
  percentage of surface covered by activated cells: 0.0454% and 0.0283% and 0.02%
